Test results taken from patent US20250140406A1, “CLASSIFYING TUMORS AND PREDICTING RESPONSIVENESS” (Oncocyte Corporation, priority 2022, published 2025).

tested on: cancer cell lines classified IM, MSL, M; assay: PRISM screen compound sensitivity correlated with IM, MSL and M subtype of cell lines (101 gene signature); type: cell-based; details: not given

Structure (SMILES) | TNBCType train
Cc1nc2n(c(=O)c1CCN1CCC(c3noc4cc(F)ccc34)CC1)CCCC2 [risperidone] | MSL

same assay, conditions: subtype (IM, MSL or M) assigned to the compound by negative correlation of PRISM sensitivity with subtype; training cell set (371 cell lines), 101 gene signature

Structure (SMILES) | TNBCType train
CC[C@@H]1/C=C(\C)C[C@H](C)C[C@H](OC)[C@H]2O[C@@](O)(C(=O)C(=O)N3CCCC[C@H]3C(=O)O[C@H](/C(C)=C/[C@@H]3CC[C@H](Cl)[C@H](OC)C3)[C@H](C)[C@@H](O)CC1=O)[C@H](C)C[C@@H]2OC [pimecrolimus] | MSL
O=C(O)C[C@H](O)C[C@H](O)/C=C/c1c(C2CC2)nc2ccccc2c1-c1ccc(F)cc1 [pitavastatin] | MSL
C=Cc1cc(O)cc2nc(-c3ccc(O)c(F)c3)oc12 [prinaberel] | MSL
CCn1nc(C)c2c1C(c1ccccc1)=NCC(=O)N2 [ripazepam] | MSL
O=C1C=CC[C@@H]2[C@H]3CCCN4CCC[C@@H](CN12)[C@@H]34 [sophocarpine] | MSL
CC(=O)N1N=C(c2ccc(N)cc2)c2cc3c(cc2C[C@H]1C)OCO3 [talampanel] | MSL
N#Cc1cc(-c2n[nH]c(-c3ccncc3)n2)ccn1 [topiroxostat] | MSL

same assay, conditions: subtype (IM, MSL or M) the PRISM compound sensitivity is associated with; training cell set (371 cell lines); 101 gene signature

Structure (SMILES) | TNBCType train
COc1cc2c3cc1Oc1cc(ccc1O)C[C@@H]1c4c(cc(OC)c(O)c4Oc4ccc(cc4)C[C@@H]3N(C)CC2)CC[N+]1(C)C [tubocurarine] | MSL

same assay, conditions: subtype (IM, MSL or M) with which PRISM compound sensitivity is negatively correlated; training cell set, 101 gene signature

Structure (SMILES) | TNBCType train
Cc1cn2nc([C@@H]3CCCCN3C(=O)c3cc(Cl)ccc3NS(C)(=O)=O)cc2nc1N1CC[C@H](N)C1 [presatovir] | MSL
Cc1ccc2c(-c3ccccc3)nc(=O)n(C(C)C)c2c1 [proquazone] | MSL
O=C(N[C@H]1CN2CCC1CC2)c1cnc2ccsc2c1O [pumosetrag] | MSL
C[C@]12CC[C@H](O)C[C@H]1CC[C@@H]1[C@@H]2CC[C@]2(C)[C@@H](c3ccc(=O)oc3)C[C@H]3O[C@]132 [resibufogenin] | MSL
C[C@H]1CNCCCN1S(=O)(=O)c1cccc2cncc(F)c12 [ripasudil] | MSL
CC(C)N(CCCCOCC(=O)NS(C)(=O)=O)c1cnc(-c2ccccc2)c(-c2ccccc2)n1 [selexipag] | MSL
CC[C@H]1OC(=O)[C@@](C)(F)C(=O)[C@H](C)[C@@H](O[C@@H]2O[C@H](C)C[C@H](N(C)C)[C@H]2O)[C@](C)(OC)C[C@@H](C)C(=O)[C@H](C)[C@H]2N(CCCCn3cc(-c4cccc(N)c4)nn3)C(=O)O[C@]12C [solithromycin] | MSL
CN(C)C(=S)SC(=S)N(C)C [tetramethylthiuram-monosulfide] | MSL
O=C(Cn1c(=O)sc2ccc(Cl)cc21)N1CCN(CCO)CC1 [tiaramide] | MSL
CCCSc1nc(N[C@@H]2C[C@H]2c2ccc(F)c(F)c2)c2nnn([C@@H]3C[C@H](OCCO)[C@@H](O)[C@H]3O)c2n1 [ticagrelor] | MSL
CC(C)(C)c1ccc(S(=O)(=O)Nc2ccc(Cl)cc2C(=O)c2cc[n+]([O-])cc2)cc1 [vercirnon] | MSL
COc1ccc(N(C)c2nc(C)nc3ccccc23)cc1 [verubulin] | MSL

same assay, conditions: subtype (IM, MSL or M) with which compound sensitivity is negatively correlated; training cell set (371 cell lines), 101 gene signature

Structure (SMILES) | TNBCType train
CCCCN1CCC(CNC(=O)c2c3n(c4ccccc24)CCCO3)CC1 [piboserod] | MSL
C[C@@H](c1nc(-c2ccc(C#N)cc2)cs1)[C@](O)(Cn1cncn1)c1ccc(F)cc1F [ravuconazole] | MSL
C=C[C@](C)(O)CC[C@@H]1[C@@]2(C)CCCC(C)(C)[C@@H]2CC[C@@]1(C)O [sclareol] | MSL
Nc1ccc(S(N)(=O)=O)cc1 [sulfanilamide] | MSL
COc1ccc2[nH]c([S+]([O-])Cc3ncc(C)c(OC)c3C)nc2n1 (centres unmarked) [tenatoprazole] | MSL
C[C@]12CC[C@H]3[C@@H](CC[C@@]45O[C@@H]4C(O)=C(C#N)C[C@]35C)[C@@H]1CC[C@@H]2O [trilostane] | MSL

same assay, conditions: subtype (IM, MSL, M) with which compound sensitivity correlates; test set

Structure (SMILES) | TNBCType test
C[C@]12CC[C@H](O)C[C@H]1CC[C@@H]1[C@@H]2CC[C@]2(C)[C@@H](c3ccc(=O)oc3)C[C@H]3O[C@]132 [resibufogenin] | MSL

same assay, conditions: subtype (IM, MSL, M) with which compound sensitivity correlates; training set

Structure (SMILES) | TNBCType train
C[C@]12CC[C@H](O)C[C@H]1CC[C@@H]1[C@@H]2CC[C@]2(C)[C@@H](c3ccc(=O)oc3)C[C@H]3O[C@]132 [resibufogenin] | MSL
